Assay results taken from patent publication US20220241416A1, “METHODS FOR THE IDENTIFICATION OF SARM1 NADASE ACTIVITY INHIBITORS AND USES THEREOF” (Bar Ilan University, priority 2021, published 2022).

Key:
zfSARM1 = target: T1, zfSARM1 (Danio rerio, UniProt F1QWA8); test: Effect of hSARM1 inhibitors on zfSARM1 NADase activity (ADPR by HPLC); format: biochemical, Zebrafish; conditions: 50 μM NAD+; ADPR production by HPLC
T1 sequence (F1QWA8 1-713): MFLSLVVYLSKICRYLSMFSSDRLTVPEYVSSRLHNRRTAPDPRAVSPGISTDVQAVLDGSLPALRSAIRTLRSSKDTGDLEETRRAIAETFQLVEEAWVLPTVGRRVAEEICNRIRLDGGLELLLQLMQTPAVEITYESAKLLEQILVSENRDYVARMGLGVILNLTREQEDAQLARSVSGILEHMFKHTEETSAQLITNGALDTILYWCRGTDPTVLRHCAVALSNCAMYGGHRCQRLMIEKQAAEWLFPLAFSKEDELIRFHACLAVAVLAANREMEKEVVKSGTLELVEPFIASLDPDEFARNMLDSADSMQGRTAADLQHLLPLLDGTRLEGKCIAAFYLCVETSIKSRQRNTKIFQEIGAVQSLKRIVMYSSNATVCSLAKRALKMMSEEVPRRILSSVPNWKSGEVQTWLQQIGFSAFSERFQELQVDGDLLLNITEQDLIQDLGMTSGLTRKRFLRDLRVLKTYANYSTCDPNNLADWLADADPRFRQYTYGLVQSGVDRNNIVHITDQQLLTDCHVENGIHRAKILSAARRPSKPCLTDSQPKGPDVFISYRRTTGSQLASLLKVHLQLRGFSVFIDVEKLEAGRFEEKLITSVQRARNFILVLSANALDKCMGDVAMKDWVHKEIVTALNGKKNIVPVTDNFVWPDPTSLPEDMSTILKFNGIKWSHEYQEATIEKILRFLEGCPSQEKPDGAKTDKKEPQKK

hSARM1 = target: T2, hSARM1 (Homo sapiens, UniProt Q6SZW1); test: High-throughput resazurin fluorescence inhibitor screen; format: biochemical; conditions: 1 mM NAM; pre-incubation 10 minutes at room temperature
T2 construct: hSARM1w.t; (26ERL . . . GPT724) that was not mutated in E642, was also expressed and isolated; 6xHis (N); TEV cleavage site (N); made in house; host or cells: HEK293F suspension cells
T2 sequence (Q6SZW1 with tags, fused parts or gaps): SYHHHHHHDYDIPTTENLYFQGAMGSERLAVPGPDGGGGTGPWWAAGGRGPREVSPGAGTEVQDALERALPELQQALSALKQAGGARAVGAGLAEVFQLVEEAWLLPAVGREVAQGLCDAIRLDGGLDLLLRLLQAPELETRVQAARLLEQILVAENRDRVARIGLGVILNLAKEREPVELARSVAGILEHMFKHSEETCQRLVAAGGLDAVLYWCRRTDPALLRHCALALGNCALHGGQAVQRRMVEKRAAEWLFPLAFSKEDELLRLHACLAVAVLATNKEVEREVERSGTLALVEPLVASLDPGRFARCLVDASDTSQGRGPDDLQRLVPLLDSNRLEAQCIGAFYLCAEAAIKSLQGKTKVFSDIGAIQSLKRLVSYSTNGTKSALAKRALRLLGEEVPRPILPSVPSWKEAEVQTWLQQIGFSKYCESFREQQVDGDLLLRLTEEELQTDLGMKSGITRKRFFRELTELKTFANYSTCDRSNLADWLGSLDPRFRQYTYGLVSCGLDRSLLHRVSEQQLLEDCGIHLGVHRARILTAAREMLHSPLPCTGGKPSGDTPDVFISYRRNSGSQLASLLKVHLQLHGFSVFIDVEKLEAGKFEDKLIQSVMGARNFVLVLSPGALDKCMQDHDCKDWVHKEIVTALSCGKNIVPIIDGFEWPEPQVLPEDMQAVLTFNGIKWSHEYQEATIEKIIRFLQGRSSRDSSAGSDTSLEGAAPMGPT
Experimental: The high-throughput inhibitor-screening assay was preformed using the MultiDrop 384 microplate dispenser (Thermo Scientific) and 1536-well black/black non-binding Microplates (Greiner Bio-One).
First, 10 nano-liters of each of the 142000 screened compounds, solubilized in DMSO, were plated using Echo® 550 Liquid Handler (Sunny vale, CA, USA). Then. 5 micro liters of purified SARM1 (at 50 Nano-Molar concentration) in 25 mM HEPES pH 7.5, 150 mM NaCl were added to each well for 10 minutes incubation in 25° C. Next, 2.5 Micro Liters of NAD+(in 0.25 Micro-Molar concentration, in 25 mM HEPES pH 7.5, 150 mM NaCl) were added to each well and incubated for 70 min at 37° C. The compounds concentration at this point were […].
Measurement of NAD+ concentrations were made by a modified enzymatic coupled cycling assay. […] Fluorescent signals were measured by PheraStar FS plate reader (BMG Labtech, Ortenberg, Germany) at 540-nm excitation and 590-nm emission wavelengths. […]
To discover new and effective inhibitors for hSARM1, we have applied a modified fluorescence assay for high throughput screening. The adaptations introduced in this assay aim to achieve: stable fluorescent signal over time, good sensitivity for inhibition by screened compounds, high signal-to-noise, good reproducibility, accuracy, and diminishing of false-positive readouts. […]

## NC(=O)c1cccnc1 [NAM, nicotinamide, reference compound]
zfSARM1
  IC50: 227 µM
hSARM1
  fluorescence output response: hSARM1 inhibition
